Values after ≈ are worked out from the molar mass of the structure shown.
Tests used:
Format in all cases: functional
[1] = tested on: Staphylococcus aureus; assay: Antibacterial activity against coagulase-negative and oxacillin-susceptible Staphylococcus aureus assessed as susceptible isolates by CLSI M7-A7 broth microdilution method
[2] = tested on: Enterococcus faecium; assay: Antibacterial activity against vancomycin-resistant Enterococcus faecium by CLSI M7-A7 broth microdilution method
[3] = tested on: Staphylococcus aureus; assay: Antibacterial activity against methicillin-susceptible Staphylococcus aureus assessed as resistant isolates by CLSI M7-A7 broth microdilution method
[4] = tested on: Staphylococcus aureus; assay: Antibacterial activity against coagulase-negative and oxacillin-susceptible Staphylococcus aureus assessed as resistant isolates by CLSI M7-A7 broth microdilution method
[5] = tested on: Staphylococcus aureus; assay: Antibacterial activity against methicillin-susceptible Staphylococcus aureus assessed as susceptible isolates by CLSI M7-A7 broth microdilution method
[6] = tested on: Staphylococcus aureus; assay: Antibacterial activity against methicillin-susceptible Staphylococcus aureus by CLSI M7-A7 broth microdilution method
[7] = tested on: Staphylococcus aureus; assay: Antibacterial activity against methicillin-resistant Staphylococcus aureus assessed as resistant isolates by CLSI M7-A7 broth microdilution method
[8] = tested on: Staphylococcus aureus; assay: Antibacterial activity against coagulase-negative and oxacillin-resistant Staphylococcus aureus by CLSI M7-A7 broth microdilution method
[9] = tested on: Moraxella catarrhalis; assay: Antibacterial activity against beta lactamase-positive Moraxella catarrhalis by CLSI M7-A7 broth microdilution method
[10] = tested on: Staphylococcus aureus; assay: Antibacterial activity against methicillin-resistant Staphylococcus aureus assessed as susceptible isolates by CLSI M7-A7 broth microdilution method
[11] = tested on: Staphylococcus aureus; assay: Antibacterial activity against methicillin-resistant Staphylococcus aureus by CLSI M7-A7 broth microdilution method
[12] = tested on: Enterococcus faecalis; assay: Antibacterial activity against vancomycin-susceptible Enterococcus faecalis by CLSI M7-A7 broth microdilution method
[13] = tested on: Enterococcus faecalis; assay: Antibacterial activity against vancomycin-resistant Enterococcus faecalis by CLSI M7-A7 broth microdilution method
[14] = tested on: Staphylococcus aureus; assay: Antibacterial activity against coagulase-negative and oxacillin-resistant Staphylococcus aureus assessed as resistant isolates by CLSI M7-A7 broth microdilution method
[15] = tested on: Staphylococcus aureus; assay: Antibacterial activity against coagulase-negative and oxacillin-susceptible Staphylococcus aureus by CLSI M7-A7 broth microdilution method
[16] = tested on: Staphylococcus aureus; assay: Antibacterial activity against coagulase-negative and oxacillin-resistant Staphylococcus aureus assessed as susceptible isolates by CLSI M7-A7 broth microdilution method

Cc1onc(-c2ccccc2)c1C(=O)N[C@@H]1C(=O)N2[C@@H]1SC(C)(C)[C@@H]2C(=O)O [OXACILLIN]
Activity [1]: 100%
MIC [2]: > 8 µg/mL
MIC50 [2]: > 8 µg/mL
MIC90 [2]: > 8 µg/mL
Activity [3]: 0%
Activity [4]: 0%
Activity [5]: 100%
MIC50 [6]: 0.25 µg/mL (≈ 0.623 µM)
MIC90 [6]: 0.5 µg/mL (≈ 1.25 µM)
Activity [7]: 100%
MIC50 [8]: > 8 µg/mL
MIC90 [8]: > 8 µg/mL
MIC50 [9]: 4 µg/mL (≈ 9.96 µM)
MIC90 [9]: > 8 µg/mL
Activity [10]: 0%
MIC50 [11]: > 8 µg/mL
MIC90 [11]: > 8 µg/mL
MIC50 [12]: > 8 µg/mL
MIC90 [12]: > 8 µg/mL
MIC50 [13]: > 8 µg/mL
MIC90 [13]: > 8 µg/mL
Activity [14]: 100%
MIC50 [15]: 0.12 µg/mL (≈ 0.299 µM)
MIC90 [15]: 0.25 µg/mL (≈ 0.623 µM)
Activity [16]: 0%
